Measurements as given in US20260042769A1, “TRIARYL AGONISTS OF ALPHA-2 ADRENERGIC RECEPTORS” (ALCEPTOR THERAPEUTICS, INC., priority 2023, published 2026).

Molecular target: T1, human ADRA2B receptor (Homo sapiens, UniProt P18089)
T1 construct: expressed in transfected cells
T1 sequence (P18089 1-450): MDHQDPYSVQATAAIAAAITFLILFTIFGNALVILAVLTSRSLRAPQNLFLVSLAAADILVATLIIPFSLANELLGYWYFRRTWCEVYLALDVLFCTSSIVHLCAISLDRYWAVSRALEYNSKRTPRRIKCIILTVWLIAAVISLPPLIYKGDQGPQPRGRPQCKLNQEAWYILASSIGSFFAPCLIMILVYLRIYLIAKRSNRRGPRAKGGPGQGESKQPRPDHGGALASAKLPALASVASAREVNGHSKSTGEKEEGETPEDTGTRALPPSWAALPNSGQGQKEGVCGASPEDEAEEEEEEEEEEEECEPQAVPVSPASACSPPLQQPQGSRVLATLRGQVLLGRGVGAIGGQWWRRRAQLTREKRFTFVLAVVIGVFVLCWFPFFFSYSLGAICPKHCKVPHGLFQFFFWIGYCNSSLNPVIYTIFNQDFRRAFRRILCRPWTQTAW
Assay: GTPγS agonist assay, ADRA2B receptor
Format: biochemical
Conditions: read-out: GTPase - Human Alpha2B EC50
Method: GTP ? S Agonist Assays (ADRA2A, ADRA2B, and ADRA2C Receptors)
Membranes were prepared for GTP ? S binding assays from CHO-K1 cells stably expressing human ADRA2A, ADRA2B, or ADRA2C receptor. Briefly, cells were grown in 5-layer cell culture flasks. Cells were washed with 50 mL of PBS and then dissociated with 0.05% trypsin. Dissociated cells were then collected by centrifugation at 650×g for 8 min at 4° C. Pellets were washed again in PBS by centrifugation and resuspended in 30 mL of 20 mM HEPES, 10 mM EDTA, pH 7.4. After sitting on ice for 30 min, membranes were collected by centrifugation at 50000×g for 15 min at 4° C., resuspended in 30 mL of 20 mM HEPES, 0.1 mM EDTA, pH 7.4 and collected again by centrifugation. Pellets were then washed twice by centrifugation in 30 mL of 20 mM HEPES, pH 7.4, and stored at −80° C. until the day of the assay. On the day of the assay, pellets were thawed on ice and resuspended in 1 mL of 20 mM HEPES, pH 7.4, 10 mM MgCl2, 100 mM NaCl using dounce homogenization. Membrane protein concentration was determined by BCA protein assay (Promega, Madison, WI) according to Promega guidelines.
On the day of the assay, serial dilutions of test compounds were brought up in assay buffer (20 mM HEPES, 10 mM MgCl2, 200 mM NaCl) at 10× final assay concentration. 50 μL/well of membrane homogenates (containing 5 μg of membrane protein for ADRA2A, ADRA2B, or 7.5 μg for ADRA2C) were prepared in assay buffer supplemented with GDP at 2× final assay concentration (5 μM GDP) and dispensed into 96 well polypropylene, U-bottom Greiner plates. Then, 10 μL of compounds were added to assay plates and incubated for 10 min at room temperature. […] The binding reaction was incubated for 1 h at 37° C. Membranes in assay reactions were then transferred to GF/C filter plates (UniFilter, Perkin Elmer) and washed three times using a FilterMate Harvester (Perkin Elmer) with cold assay buffer containing no GDP. Filter plates were then dried at 40° C. overnight followed by the addition of 30 μL/well of Beta Plate Scintillation liquid. Plates were top and bottom sealed before being read on TopCount scintillation counter (Perkin Elmer, Waltham, MA).

Compound | EC50
Cc1cccc(C(Cc2cccnn2)c2c[nH]cn2)c1 (centres unmarked) [Compound 228, 3-[2-(4-imidazolyl)-2-(m-tolyl)ethyl]pyridazine] | > 500 nM
Cc1cccc(C(Cc2ccnnc2)c2cnc[nH]2)c1C (centres unmarked) [Compound 104, 4-[2-(4-imidazolyl)-2-(2,3-xylyl)ethyl] pyridazine] | > 500 nM
Cc1cccc(C(Cc2cnccn2)c2cnc[nH]2)c1C (centres unmarked) [Compound 94, 2-[2-(2,3-dimethylphenyl)-2-(1H-imidazol-4-yl)ethyl] pyrazine] | 50 to 500 nM
FC(F)(F)Oc1ccccc1[C@H](Cc1ccccn1)c1cnc[nH]1 [Compound 29, 2-[(2S)-2-(1H-imidazol-4-yl)-2-[2-(trifluoromethoxy)phenyl]ethyl] pyridine] | > 500 nM
Cc1cccc(C(Cc2cnco2)c2c[nH]cn2)c1C (centres unmarked) [Compound 134, 5-[2-(4-imidazolyl)-2-(2,3-xylyl)ethyl]-1,3-oxazole] | < 10 nM
Cc1cccc([C@@H](Cc2ccnn2C)c2c[nH]cn2)c1C [Compound 130, 5-[(R)-2-(4-imidazolyl)-2-(2,3-xylyl)ethyl]-1-methyl-pyrazole] | < 10 nM
COc1cccc(C[C@H](c2cnc[nH]2)c2cccc3c2COC3)n1 [Compound 11, 2-[(2S)-2-(1,3-dihydro-2-benzofuran-4-yl)-2-(1H-imidazol-4-yl)ethyl]-6-methoxypyridine] | < 10 nM
COc1cccc(C[C@H](c2cnc[nH]2)c2cccc(C)c2OC)n1 [Compound 9, 2-[(2S)-2-(1H-imidazol-4-yl)-2-(2-methoxy-3-methylphenyl)ethyl]-6-methoxypyridine] | < 10 nM
COc1cc(OC(F)(F)F)cc(C(Cc2ccnc(OC)n2)c2c[nH]cn2)c1 (centres unmarked) [Compound 204, 4-[2-(4-imidazolyl)-2-(3-methoxy-5-trifluoromethoxyphenyl)ethyl]-2-methoxypyrimidine] | > 500 nM
Fc1ccc(C(Cc2cccnn2)c2c[nH]cn2)cc1F (centres unmarked) [Compound 224, 3-[2-(3,4-difluorophenyl)-2-(4-imidazolyl)ethyl] pyridazine] | > 500 nM
COc1ncc(CC(c2c[nH]cn2)c2cccc3c2OCC3)c(OC)n1 (centres unmarked) [Compound 312, 5-[2-(2,3-dihydro-1-benzofuran-7-yl)-2-(4-imidazolyl)ethyl]-2,4-dimethoxypyrimidine] | 10 to 50 nM
c1ccc(C[C@H](c2cnc[nH]2)c2cccc3c2OCC3)nc1 [Compound 43, 2-[(2S)-2-(2,3-dihydro-1-benzofuran-7-yl)-2-(1H-imidazol-4-yl)ethyl] pyridine] | > 500 nM
COc1cccc(CC(c2c[nH]cn2)c2cccc(C)c2Cl)n1 (centres unmarked) [Compound 28, 2-[2-(2-chloro-3-methylphenyl)-2-(1H-imidazol-4-yl)ethyl]-6-methoxypyridine] | < 10 nM
COc1cccc(C[C@H](c2c[nH]cn2)c2cccc3c2CCO3)n1 [Compound 18, 2-[(2S)-2-(2,3-dihydro-1-benzofuran-4-yl)-2-(1H-imidazol-4-yl)ethyl]-6-methoxypyridine] | > 500 nM
Cc1cc(C)nc(CC(c2cnc[nH]2)c2cccc(C)c2C)c1 (centres unmarked) [Compound 95, 2-[2-(2,3-dimethylphenyl)-2-(1H-imidazol-4-yl)ethyl]-4,6-dimethyl-pyridine] | < 10 nM
COc1cccc(C[C@@H](c2c[nH]cn2)c2cccc(C)c2C)n1 [Compound 4, 2-[(2R)-2-(2,3-dimethylphenyl)-2-(1H-imidazol-4-yl)ethyl]-6-methoxypyridine] | 50 to 500 nM
FC(F)Oc1ccccc1C(Cc1ccccn1)c1c[nH]cn1 (centres unmarked) [Compound 107, 4-[1-(o-difluoro-methoxyphenyl) 2-(2-pyridyl)ethyl] imidazole] | > 500 nM
COc1cccc(C[C@H](c2c[nH]cn2)c2cccc(C)c2F)n1 (single isomer, unassigned) [Compound 5] | < 10 nM

Compound | EC50
Cc1cccc([C@H](Cc2cccc(C(F)(F)F)n2)c2c[nH]cn2)c1C [Compound 80, 2-[(2S)-2-(2,3-dimethylphenyl)-2-(1H-imidazol-4-yl)ethyl]-6-(trifluoromethyl) pyridine] | < 10 nM
Cc1ccnc(C[C@@H](c2cnc[nH]2)c2cccc(C)c2C)n1 [Compound 79, 2-[(2R)-2-(2,3-dimethylphenyl)-2-(1H-imidazol-4-yl)ethyl]-4-methylpyrimidine] | 50 to 500 nM
COc1nccc(CC(c2c[nH]cn2)c2cccc(OC)c2C)n1 (centres unmarked) [Compound 178, 4-[2-(4-imidazolyl)-2-(3-methoxy-2-tolyl)ethyl]-2-methoxypyrimidine] | 10 to 50 nM
Cc1cccc([C@H](Cc2ccnc(CF)n2)c2c[nH]cn2)c1C [Compound 152, 4-[(S)-2-(4-imidazolyl)-2-(2,3-xylyl)ethyl]-2-(fluoromethyl) pyrimidine] | 50 to 500 nM
CCOc1ccc(C(Cc2cccnn2)c2c[nH]cn2)cc1C(F)(F)F (centres unmarked) [Compound 226, 3-(2-[4-ethoxy-3-(trifluoromethyl)phenyl]-2-(4-imidazolyl)ethyl] pyridazine] | > 500 nM
COCCNc1cccc(CC(c2cnc[nH]2)c2cccc(C)c2C)n1 (centres unmarked) [Compound 84, 6-[2-(2,3-dimethylphenyl)-2-(1H-imidazol-4-yl)ethyl]-N-(2-methoxyethyl) pyridin-2-amine] | < 10 nM
Cc1cccc(C(Cc2ccnnc2)c2cnc[nH]2)c1C (centres unmarked) [Compound 85, 4-[2-(2,3-dimethylphenyl)-2-(1H-imidazol-4-yl)ethyl] pyridazine] | 10 to 50 nM
COc1cccc(C[C@@H](c2cccc(C)c2)c2cnc[nH]2)n1 [Compound 23, 2-[(2S)-2-(1H-imidazol-4-yl)-2-(3-methylphenyl)ethyl]-6-methoxypyridine] | < 10 nM
COc1nccc(CC(c2ccc(C(F)F)cc2)c2c[nH]cn2)n1 (centres unmarked) [Compound 188, 4-{2-[p-(difluoromethyl)phenyl]-2-(4-imidazolyl)ethyl}-2-methoxypyrimidine] | > 500 nM
c1ccc(C[C@@H](c2cnc[nH]2)c2cccc3c2CCO3)nc1 [Compound 42, 2-[(2R)-2-(2,3-dihydro-1-benzofuran-4-yl)-2-(1H-imidazol-4-yl)ethyl] pyridine] | 50 to 500 nM
Cc1cccc(C(Cc2ccc(=O)[nH]n2)c2c[nH]cn2)c1C (centres unmarked) [Compound 86, 6-[2-(2,3-dimethylphenyl)-2-(1H-imidazol-4-yl)ethyl]-2,3-dihydropyridazin-3-one] | < 10 nM
Cc1cccc(C(Cc2ncco2)c2c[nH]cn2)c1C (centres unmarked) [Compound 117, 2-[2-(4-imidazolyl)-2-(2,3-xylyl)ethyl]-1,3-oxazole] | 50 to 500 nM
Cc1cccc(C(Cc2ccncc2)c2cnc[nH]2)c1C (centres unmarked) [Compound 97, 4-[2-(2,3-dimethylphenyl)-2-(1H-imidazol-5-yl)ethyl] pyridine] | < 10 nM
COc1cccc(C[C@@H](c2c[nH]cn2)c2cccc(C)c2F)n1 (single isomer, unassigned) [Compound 6] | 50 to 500 nM
c1ccc(C[C@@H](c2c[nH]cn2)c2cccc3c2OCC3)nc1 [Compound 44, 2-[(2R)-2-(2,3-dihydro-1-benzofuran-7-yl)-2-(1H-imidazol-4-yl)ethyl] pyridine] | 10 to 50 nM
Cc1cccc([C@@H](Cc2cccnc2)c2cnc[nH]2)c1C [Compound 59, 3-[(2R)-2-(2,3-dimethylphenyl)-2-(1H-imidazol-4-yl)ethyl] pyridine] | < 10 nM
c1cnnc(C[C@@H](c2c[nH]cn2)c2cccc3c2CCO3)c1 [Compound 324, 3-[(R)-2-(2,3-dihydro-1-benzofuran-4-yl)-2-(4-imidazolyl)ethyl]pyridazine] | > 500 nM
